Assay results published in BindingDB's records for doi:10.1021/jm00111a038 (Ici Pharmaceuticals Group, 1991).

Assay: Inhibition of 5-lipoxygenase in human whole blood.

IC50	SMILES
6.3 µM	CCCCCCCCCCOc1cccc(C(O)c2ncc(C)[nH]2)c1 (stereo not drawn)
7 µM	Cc1cnc(C(O)c2cccc(OCc3ccc(-c4ccccc4)cc3)c2)[nH]1 (stereo not drawn)
5.1 µM	OC(c1cccc(OCc2ccc3ccccc3c2)c1)c1nccs1 (stereo not drawn)
